These are literature values, as cited in paper PMC5296674, “Evaluation of the Availability and Antioxidant Capacity of Maillard Compounds Present in Bread Crust: Studies in Caco-2 Cells” (Foods, 2017).

The test system of this data set is Caco-2 cells. The arrangement: method as in PMID 19338346.

On to `CC1=C(O)C(=O)C(C)O1` (centres unmarked) [HDMF, 4-hydroxy-2,5-dimethyl-3(2H)-furanone], for which the Saturation of transport result (100 and 500 μM) was “saturation of the transport was not observed”.
Regarding `O=Cc1ccc(CO)o1` [HMF, hydroxymethylfurfural], the HMF transport rate result (100 µM HMF solution, 4 h of incubation) is listed as “around 20%”.
